Assay results from patent publication US20190062709A1, “METHODS AND COMPOSITIONS FOR MAINTENANCE OF HEMATOPOIETIC STEM CELLS WITH PRESERVATION OF SELF-RENEWAL CAPACITY” (The Trustees of Columbia University in the City of New York, priority 2017, published 2019).
Read-outs that look alike come from different tables or passages of the source.

Legend:
HSCs [1] = assay: Calcium concentration of HSCs treated with metabolic inhibitors; type: cell-based, mouse
[2] = 37° C., assumed based on previous studies; read-out: Indo-1 dissociation constant (Kd); cited from earlier work
[3] = test system: human progenitor/stem cells; conditions: literature report; cited from earlier work
murine HSCs = conditions: literature report; cited from earlier work
murine AHR = molecular target: T1, murine AHR (Mus musculus, UniProt P30561); conditions: literature report; cited from earlier work
T1 sequence (P30561 10-848): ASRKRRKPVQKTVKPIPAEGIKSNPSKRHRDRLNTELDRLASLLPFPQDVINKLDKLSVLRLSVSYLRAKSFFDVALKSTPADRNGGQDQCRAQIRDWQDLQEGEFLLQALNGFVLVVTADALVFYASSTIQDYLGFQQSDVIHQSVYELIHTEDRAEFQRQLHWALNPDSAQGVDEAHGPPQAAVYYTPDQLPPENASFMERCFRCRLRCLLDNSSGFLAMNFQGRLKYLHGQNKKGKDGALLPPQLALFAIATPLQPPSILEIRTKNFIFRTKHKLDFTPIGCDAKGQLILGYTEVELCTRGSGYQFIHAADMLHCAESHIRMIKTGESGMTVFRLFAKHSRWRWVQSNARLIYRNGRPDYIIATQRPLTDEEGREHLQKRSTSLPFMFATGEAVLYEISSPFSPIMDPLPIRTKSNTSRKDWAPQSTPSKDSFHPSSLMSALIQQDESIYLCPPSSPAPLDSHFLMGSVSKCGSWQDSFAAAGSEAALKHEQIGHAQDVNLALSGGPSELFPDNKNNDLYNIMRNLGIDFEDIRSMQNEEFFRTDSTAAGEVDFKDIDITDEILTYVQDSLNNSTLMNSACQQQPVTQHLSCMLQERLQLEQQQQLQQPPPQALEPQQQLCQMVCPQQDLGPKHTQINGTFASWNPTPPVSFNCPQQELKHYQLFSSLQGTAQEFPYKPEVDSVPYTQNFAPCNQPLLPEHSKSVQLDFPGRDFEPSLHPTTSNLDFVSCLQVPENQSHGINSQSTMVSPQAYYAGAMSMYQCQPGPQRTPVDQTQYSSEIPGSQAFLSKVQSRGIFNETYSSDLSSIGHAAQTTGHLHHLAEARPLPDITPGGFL

HSCs [4] = assay: Competitive transplantation of cultured HSCs into irradiated recipient mice (donor chimerism); type: in vivo, mouse; conditions: 10% of culture transplanted
Experimental: Long term LT-HSCs cultures were carried out using Ca^2+-free DMEM (U.S. Biologicals) reconstituted with 4.5 g/L glucose and 1.1 g/L sodium bicarbonate at pH 7.4. Complete media was prepared with Ca^2+-free DMEM supplemented with 1× StemPro34 SFM (Invitrogen), 10 mM HEPES, 200 ng/mL of recombinant m-SCF and 30 ng/mL m-TPO (Peptrotech, Rocky Hill, N.J.). Media of various calcium concentrations was prepared as serial dilutions from stock complete media at 2 mM. Cultures were initiated with 3000-4000 purified HSCs (LSK+CD48−F1t3−CD150+) and cultured in round bottom 96 well plates with 150 uL of media in 5% O2 at 37° C. Half of the media volume was changed every 3 days and split 1:2 every 7 days. Cultures were counted at the time of phenotypic flow cytometric percentage analysis to determine phenotypic HSC counts at the end of culture. Based on calculations, HSC yields were expressed as phenotypic HSC at the end of culture divided by phenotypic HSC count at the start of culture.
All transplant experiments were initiated with LT-HSC cultures consisting of CD45.1 donor HSCs. […]
To test HSC function, irradiated recipient mice were competitively transplanted with 10% of the cultures, either at initiation or after 2 weeks of culture, and analyzed 15 weeks after transplantation. […] Donor contribution correlated with calculated phenotypic HSC cell dose transplanted (FIG. 2D). […]

[5] = purified HSCs treated 15 min, compared to DMSO control

## N#CC(C#N)=NNc1ccc(OC(F)(F)F)cc1 [FCCP]
HSCs [1]; higher doses of the mitochondrial inhibitors, 15 min
  Cai^2+ of HSCs at higher doses: further reduction
HSCs [1]; [5]
  Cai^2+ of HSCs: not inhibition of mitochondrial respiration increased

## CC[C@H]1/C=C/C=C/C[C@@H](C)[C@H](O)[C@@](C)(O)C(=O)[C@@H](C)[C@H](O)[C@@H](C)C(=O)[C@@H](C)[C@H](O)[C@@H](C)/C=C/C(=O)O[C@@H]2[C@H](C)[C@H](CC1)O[C@]1(CC[C@H](C)[C@H](C[C@@H](C)O)O1)[C@H]2C [oligomycin]
HSCs [1]; [5]
  Cai^2+ of HSCs: not inhibition of mitochondrial respiration increased

## O=C(O)CI [iodoacetic acid]
HSCs [1]
  Cai^2+ of HSCs: increased

## Cc1ccc(N(CC(=O)O)CC(=O)O)c(OCCOc2cc(-c3cc4ccc(C(=O)O)cc4[nH]3)ccc2N(CC(=O)O)CC(=O)O)c1 [Indo-1]
[2]
  Kd: 237 nM

## CC(C)n1cnc2c(NCCc3ccc(O)cc3)nc(-c3csc4ccccc34)nc21 [SR1, stemregenin 1]
[3]
  expansion of human progenitor/stem cells capable of repopulating irradiated immunodeficient mice: led to expansion
Murine HSCs
  expansion of murine HSCs: does not lead to expansion
Murine AHR
  inhibition of murine AHR: does not inhibit

## O=C(O)/C(S)=C/c1ccc(I)cc1 [PD150606, (Z)-3-(4-Iodophenyl)-2-mercapto-2-propenoic acid]
HSCs [4]; PD150606 25 μM added to high calcium (2.0 mM) 2-week HSC cultures
  competitive repopulation capacity: increased competitive repopulation capacity
HSCs [4]; PD150606 25 μM added to low calcium (0.02 mM) 2-week HSC cultures
  competitive repopulation capacity: no effect
